Test results published in US9644006B2, “Carrier peptides for cell delivery” (priority 2011, dated 2017).
Like-named read-outs stand apart in the source and are kept apart here.

Tested on: Vero cells
Experiment: Effect of cytoskeleton depolymerizing drugs on delivery peptide (DynPro) movement
Format: cell-based, African green monkey
[1] = Vero cells with 10 μM DynPro, Nocodazole 2.5 μM 30 min, LatrunculinA 0.1 μM

Structure (SMILES)	effect of the drug on delivery peptide transport movement [1]	effect of the drug on delivery peptide transport movement
C/C1=C/C(=O)O[C@@H]2C[C@@H](CC[C@H](C)/C=C\C=C\CC1)O[C@@](O)([C@@H]1CSC(=O)N1)C2 [LatrunculinA]	transport was preserved	
C/C1=C\[C@H](C)C[C@H](C)OC(=O)C[C@H](c2ccc(O)cc2)NC(=O)[C@@H](Cc2c(Br)[nH]c3ccccc23)N(C)C(=O)[C@H](C)NC(=O)[C@@H](C)C1 [Jasplakinolide]		did not inhibit this movement
COC(=O)Nc1nc2ccc(C(=O)c3cccs3)cc2[nH]1 [Nocodazole]	abolished	
